In patent US8685726B2, “Small molecules supporting pluripotent cell growth and methods thereof” (Viacyte, Inc., priority 2009, dated 2014):
Counter-ions that a name gives are not always drawn. Like-named read-outs stand apart in the source and are kept apart here.

Key:
hES cells [1] = experiment: Alkaline phosphatase staining screen of LOPAC1280 library (primary screen and secondary dose titration); type: cell-based, human; details: secondary screen, dilution series, 48 hours with compound, AP staining, StemPro hESC SFM, 96-well, read-out: [Concentration] minimal effective concentration negatively impacting hES cell cultures
Method: FIG. 1. Representation of antagonists/modulators of neurotransmitter/hormone receptors identified by compound screening in hES cells. […] Receptor antagonists identified in the primary screen are shown (left column). The screen was performed using compounds at 10 μM. The secondary dose titration assay is shown (50-0.1 μM columns), and receptor class targeted by each compound and action is indicated.
Applying this approach in 96- and 384-well plates, quantitative and statistically significant cell-counting data was generated confirming the effect of AG825, an inhibitor of ERBB2 signaling, on self-renewal. About 3×10^4 hES cells per well were plated on MATRIGEL™ in StemPro® hESC SFM in 96-well plates and cultured for about 24 hours. The media was then changed, with new media containing 10 μM of a compound from the LOPAC1280 library (partial list in Table 1), and the cultures incubated for an additional 48 hours. The cultures were then fixed and stained for endogenous alkaline phosphatase, a marker of undifferentiated hES cells, activity.
The LOPAC1280 collection (Sigma Cat# LO1280), a library of small organic molecules with well-characterized pharmacological activities, was screened using the above described alkaline phosphatase detection assay in 96-well plates (16 plates total). Each 96-well assay was performed with 80 compounds (1 compound per well) and 16 wells as DMSO carrier negative controls. Greater than about 50 compounds were identified in the primary screen as impacting hES cell growth & expansion, which was then further determined to be a group of 38 molecules (Table 1) after secondary screening, and when known generally cytotoxic molecules were excluded (for example, 5-Azacytidine). Pathways that are likely to be impacted by these molecules, and therefore possibly important in hES cells, included those involving signalling by NFκB, eNOS, RAR(a), calcium channels, tachykinin signaling, guanylyl cyclase, Src and Jak2.
Secondary screening was performed using the same assay, but with a dilution series of 0.1-50 μM of a compound as compared to the 10 μM initially used. The minimal effective concentration for each compound is indicated (Table 1). […] While a role for GABA signaling in hES cell self-renewal has been highlighted previously (Ludwig et al., 2006), it has not been examined under other defined media conditions. Potential roles for other neurotransmitters in undifferentiated pluripotent stem cells have not been characterized.

hES cells [2] = experiment: Low-density real-time cell index monitoring (RT-CES impedance reader); type: cell-based, human; details: 1000 cells/well; for survival/proliferation compared to DMSO controls: StemPro hESC SFM HIA, low-density impedance assay
Method: FIG. 4. Titration of NE and ACh using the RT-CES impedance reader. 1000 hES cells/well were plated in StemPro® hESC SFM containing the indicated concentrations of small molecules (in μM). In such an assay, the timing of when the cell index rises is associated with the proportion of cells that survive and expand at low density.
FIG. 5. Combined effects of small molecules compound combinations in low cell density assays. (A) 1000 hES cells/well were plated in StemPro® hESC SFM containing small molecules at 50 μM (NE, ACh, Adenosine, GABA) or 10 μM (Y27632). The assay was carried out over 5 days using the RT-CES system.
FIG. 6. […] 1000 hES cells/well were plated in StemPro® hESC SFM containing Heregulin, IGF1 and Activin (HIA) and the indicated small molecules. […] Compounds were tested at 10 μM. The DMSO trace is an average of 8 wells. […] Compounds were tested at the indicated concentrations.
FIG. 7. […] 1000 hES cells/well were plated in StemPro® hESC SFM containing the indicated combinations of growth factors and small molecules. Heregulin (H), LR3-IGF1 (I), Activin (A).
FIG. 9. Low-density RT-CES assays of combinations of growth factors and neurotransmitters. 1000 hES cells/well were plated in StemPro® hESC SFM containing the indicated combinations of growth factors and small molecules. Heregulin (H), LR3-IGF1 (I), Activin (A). Small molecules were tested at 50 μM.
Furthermore, pluripotent cells can also be grown in 96-well culture devices that provide real-time measurements of impedance, which can be used to measure cell proliferation and viability using the RT-CES™ methods from ACEA Biosciences, Inc. (www (dot) aceabio (dot) com). Such an approach would enable a label-free identification and quantification of subtle or immediate effects on differentiable cells, as well as measurements of proliferation, apoptosis and changes to morphology, in real time.
To examine more closely the potency of individual neurotransmitters and determine if synergies exist between different factors, low-density assays were performed in real time using an impedance reader. The ACEA biosciences RT-CES system uses 96-well trays that contain embedded microsensors to monitor changes in electrical impedance, which is translated into a measure of cell index. Any overt alteration within a cell culture can be detected, including but not limited to cell proliferation, migration, cell spreading, apoptosis, differentiation and the like. […] Once an undifferentiated culture becomes confluent the cell index remains high, but tends to go down and up (scallop) between daily feedings. Conversely, differentiation is typically indicated by the appearance of distinctive patterns, such as peaks and troughs in the cell index, likely indicative of an epithelial-to-mesenchymal transition, flattening, cell migration, apoptosis or similar differentiation and growth related changes.
Human ES cells were plated at low density, 1000 cells/well, in RT-CES trays and cultured for 10 days (FIG. 4). Cells were plated directly in StemPro® hESC SFM containing carrier control (DMSO), NE, or ACh.

Compound	minimal effective concentration (hES cells [1]; Homo sapiens)	minimal effective concentration (hES cells [1])	other results
CN(C)S(=O)(=O)c1ccc2c(c1)/C(=C/c1cc3c([nH]1)CCCC3)C(=O)N2 [SU 6656]	25 µM		
Cc1cc(N)c2ccccc2[n+]1CCCCCCCCCC[n+]1c(C)cc(N)c2ccccc21 [Dequalinium chloride hydrate]	5 µM		
COc1cc([C@@H]2c3cc4c(cc3[C@H](O)[C@H]3COC(=O)[C@H]23)OCO4)cc(OC)c1OC [Podophyllotoxin]	< 0.1 µM		
COCC(=O)O[C@]1(CCN(C)CCCc2nc3ccccc3[nH]2)CCc2cc(F)ccc2[C@@H]1C(C)C [Mibefradil dihydrochloride]	25 µM		
Clc1ccc(C(c2ccc(Cl)cc2)n2cc[n+](CC(OCc3ccc(Cl)cc3Cl)c3ccc(Cl)cc3Cl)c2)cc1 (stereo not shown) [Calmidazolium chloride]	5 µM		
heregulin			low cell density survival with a single growth factor (hES cells [2]; StemPro hESC SFM): did not support low cell density survival
NCCc1ccc(O)c(O)c1 [dopamine]			survival/proliferation compared to DMSO controls (hES cells [2]): enhanced survival/proliferation
N.S=C(S)N1CCCC1 [Ammonium pyrrolidinedithiocarbamate]		10 µM	
CC(Cc1ccc(O)c(O)c1)C(C)Cc1ccc(O)c(O)c1 (stereo not shown) [Nordihydroguaiaretic acid]	5 µM		
C[C@@H]1O[C@@H](O[C@H]2C[C@@H](O)[C@]3(CO)[C@H]4[C@H](O)C[C@]5(C)[C@@H](C6=CC(=O)OC6)CC[C@]5(O)[C@@H]4CC[C@]3(O)C2)[C@H](O)[C@H](O)[C@H]1O [Ouabain]	< 0.1 µM		
CC[N+](CC)(CC)CCOc1ccc(/C=C/c2ccccc2)cc1 [MG 624]	0.1 µM		
CC(C)(C)c1ccc(C(O)CCCN2CCC(C(O)(c3ccccc3)c3ccccc3)CC2)cc1 (stereo not shown) [Terfenadine]	25 µM		
C[C@@H]1O[C@@H](O[C@H]2C[C@@H](O)[C@]3(CO)[C@H]4[C@H](O)C[C@]5(C)[C@@H]([C@@H]6COC(=O)C6)CC[C@]5(O)[C@@H]4CC[C@]3(O)C2)[C@H](O)[C@H](O)[C@H]1O [Dihydroouabain]		1 µM	
Cc1nc(-c2ccc(-c3ccc(C(=O)N4CCc5cc6c(cc54)C4(CCN(C)CC4)CO6)cc3)c(C)c2)no1 [SB 224289 hydrochloride]	25 µM		
C[C@H]1CCC/C=C/[C@@H]2C[C@H](O)C[C@H]2[C@H](O)/C=C/C(=O)O1 [Brefeldin A]		<0.1 µM	
O=c1[nH]c2ccccc2n1CCCN1CCC(n2c(=O)[nH]c3cc(Cl)ccc32)CC1 [Domperidone]	25 µM		
CNC(=O)[C@H]1O[C@@H](n2cnc3c(NCc4cccc(I)c4)ncnc32)[C@H](O)[C@@H]1O [IB-MECA]		50 µM	
N#C/C(=C\c1ccc(O)c(O)c1)C(=O)NCc1ccccc1 [Tyrphostin AG 490]		25 µM	
C/C=C(/C)C(=O)O[C@H]1C(C)=C2[C@H]([C@@H]1OC(=O)CCCCCCC)[C@@](C)(OC(C)=O)C[C@H](OC(=O)CCC)[C@@]1(O)[C@H]2OC(=O)[C@@]1(C)O [Thapsigargin]	< 0.1 µM		
Oc1cc2c(cc1O)CN(C(=S)NCCc1ccc(Cl)cc1)CCC2 [Capsazepine]	5 µM		
Nc1ccc(CCN2CCN(c3cccc(C(F)(F)F)c3)CC2)cc1 [PAPP]		25 µM	

Compound	minimal effective concentration (hES cells [1]; Homo sapiens)	minimal effective concentration (hES cells [1])	other results
CNc1ccc2oc(C[C@H]3O[C@@]4(CC[C@H]3C)O[C@H]([C@H](C)C(=O)c3ccc[nH]3)[C@H](C)C[C@H]4C)nc2c1C(=O)O [Calcimycin]	1 µM		
CC1(C)CCC2=C(O1)c1ccccc1C(=O)C2=O [beta-Lapachone]	5 µM		
O=C(/C=C/c1ccc(O)c(O)c1)OCCc1ccccc1 [Caffeic acid phenethyl ester]	< 0.1 µM		
NCCCC(=O)O [GABA]			survival and expansion at low density, single factors and two-factor combinations (hES cells [2]; 50 μM (NE, ACh, Adenosine, GABA) or 10 μM (Y27632), 5 days): less effective; time after plating at which cell index rises above background / expansion detectable (hES cells [2]; 50 μM each factor, StemPro hESC SFM): ~4.5 days; survival/proliferation compared to DMSO controls (hES cells [2]): lack of robust activity
Oc1cc(-c2ccccc2)nc2nc(Cl)ccc12 [7-Chloro-4-hydroxy-2-phenyl-1,8-naphthyridine]	5 µM		
Vinblastine sulfate salt		<0.1 µM	
CCN(CC)CCCC(C)Nc1c2ccc(Cl)cc2nc2ccc(OC)cc12 (stereo not shown) [Quinacrine dihydrochloride]	10 µM		
CC1=C(/C=C/C(C)=C/C=C/C(C)=C/C(=O)Nc2ccc(O)cc2)C(C)(C)CCC1 [Retinoic acid p-hydroxyanilide]		1 µM	
N=C(N)c1ccc(OCCCCCOc2ccc(C(=N)N)cc2)cc1 [Pentamidine isethionate]	1 µM		
COc1cc(CC(=O)O)ccc1O [HVA, homovanillic acid]			survival/proliferation compared to DMSO controls (hES cells [2]): enhanced survival/proliferation
Ic1ccccc1CNC1C2CCN(CC2)C1C(c1ccccc1)c1ccccc1.O=C(O)C(=O)O [L-703,606 oxalate]		25 µM	
CC(C)[C@H]1c2ccc(F)cc2CC[C@@]1(CCN(C)CCCc1nc2ccccc2[nH]1)OC(=O)C1CC1 [NNC 55-0396]		25 µM	
COc1cc2c(cc1O)CC[C@@H]1[C@@H]2CC[C@]2(C)[C@@H](O)CC[C@@H]12 [2-methoxyestradiol]		10 µM	
Ivermectin		5 µM	
c1ccc2c(c1)[I+]c1ccccc1-2 [Diphenyleneiodonium chloride]	0.1 µM		
CCCCCCCC/C=C\CCCCCCCC(=O)NCCc1ccc(O)c(O)c1 [N-Oleoyldopamine]	5 µM		
COC(=O)C1=C(C)NC(C)=C(C(=O)OC(C)(C)CN(C)CCC(c2ccccc2)c2ccccc2)C1c1cccc([N+](=O)[O-])c1 (stereo not shown) [Lercanidipine hydrochloride hemihydrate]	10 µM		
COc1ccc(CCCOC(Cn2ccnc2)c2ccc(OC)cc2)cc1 (stereo not shown) [SKF 96365]	25 µM		
C=CC1=C(C)c2cc3[nH]c(cc4nc(cc5[nH]c(cc1n2)c(C)c5CCC(=O)O)C(CCC(=O)O)=C4C)c(C)c3C=C [Protoporphyrin IX disodium]	10 µM		
CC[n+]1c(/C=C/C=C2/N(C)c3ccccc3C2(C)C)sc2ccccc21.[I-] [AC-93253 iodide]		5 µM	
